Patent US8889370B2, “Method of determining inhibitors of coagulation” (Siemens Healthcare Diagnostics Products GmbH, priority 2010, dated 2014)
Read-outs that look alike come from different tables or passages of the source.

Target: T1, bovine thrombin (Bos taurus, UniProt P00735)
T1 construct: a lyophilized thrombin reagent consisting of bovine thrombin; purchased Siemens Healthcare Diagnostics (hirudin activity assay, thrombin reagent)
Test: Determination of the thrombin binding constant (Ki) of peptide aldehyde ligands, chromogenic assay with hirudin activity assay reagents, Dixon plot
Format: biochemical
Experimental: The kinetic data of the peptide aldehyde ligands were determined in chromogenic assay formats by measuring the rate of hydrolysis of chromogenic peptide substrates which compete with the peptide aldehyde ligands for binding to the active site of the particular enzyme, at various substrate concentrations and peptide aldehyde-ligand concentrations. The binding constant (Ki) was determined by a known method (Dixon, M., 1953, Biochem J, 55, 170-171).
The thrombin binding constant was determined using the reagents of the hirudin activity assay from Siemens Healthcare Diagnostics. The hirudin activity assay comprises a lyophilized thrombin reagent consisting of bovine thrombin, a heparin inhibitor and aprotinin, a lyophilized chromogenic substrate reagent with a concentration of 4 mmol/l tos-Gly-Pro-Arg-ANBA-IPA (tosylglycyl-L-propyl-arginyl-5-amino-2-nitrobenzoyliso-propylamide) after reconstitution. The thrombin reagent was reconstituted in buffer solution (trishydroxymethylamino-methane, NaCl, pH 8.2). Dilutions of the substrate reagent were prepared with deionized water. The peptide aldehyde ligands prepared according to example 1 were dissolved in water and used as sample. The B-r-G-R—H ligand was used in a concentration range from 26.1 to 0.815 μM. The B-f-P—R—H ligand was used in a concentration range from 26.1 to 0 μM. The assays were carried out automatically in a BCS® XP coagulation analyzer (Siemens Healthcare Diagnostics, Marburg, Germany).
A reaction mix was mixed together as follows:
30 μl of sample (peptide aldehyde ligand B-r-G-R—H or B-f-P—R—H),
150 μl of thrombin reagent,
50 μl of chromogenic substrate reagent (tos-Gly-Pro-Arg-ABNA-IPA).
The reaction rate in mE/min was determined on the basis of the increase in optical density of the reaction mix at a wavelength of 405 nm. For this, the optical density of the reaction mixes was determined in time intervals of from 15 to 40 seconds for the B-f-P—R—H peptide aldehyde ligand or 5-16 seconds for the B-r-G-R—H peptide aldehyde ligand.
Reversibly and irreversibly binding ligands can be distinguished by their reaction kinetics. Plotting 1/v, where v is the reaction rate, as a function of the ligand concentration (i) at a constant concentration (S) of a cleavable substrate produces a line. When using two or more different substrate concentrations (S1, S2 . . . SN), said lines intersect at a single point. The x axis value of this point corresponds to −Ki, with Ki corresponding to the binding constant, see, for example, Klebe, G., Wirkstoffdesign, 2nd edition, Spektrum Akademischer Verlag, Heidelberg, Germany, 2009, pages 52-62 and Dixon, M., 1953, Biochem J, 55, 170-171. With an irreversible inhibition, the curves meet at a single point on the x axis, which again corresponds to −Ki.

For `N=C(N)NCCC[C@@H](C=O)NC(=O)[C@@H]1CCCN1C(=O)[C@@H](Cc1ccccc1)NC(=O)CCC(=O)NCCCOCCOCCOCCCNC(=O)CCCC[C@@H]1SC[C@@H]2NC(=O)N[C@@H]21` [B-f-P-R-H, biotinyl-Ttds-D-Phe-Pro-Arg-H], the 1/Reaction rate (CB-f-P-R-H 0.02038 μM, Csubstrate = 0.5 mM, not in the linear region, excluded from regression) was 1.869 min/E, the 1/Reaction rate (CB-f-P-R-H 0.02038 μM, Csubstrate = 2 mM) was 0.4138 min/E and the 1/Reaction rate (CB-f-P-R-H 0.02038 μM, Csubstrate = 4 mM) was 0.3846 min/E. The 1/Reaction rate (CB-f-P-R-H 0.04076 μM, Csubstrate = 0.5 mM, not in the linear region, excluded from regression) was 1.747 min/E, the 1/Reaction rate (CB-f-P-R-H 0.04076 μM, Csubstrate = 2 mM) was 0.4247 min/E and the 1/Reaction rate (CB-f-P-R-H 0.04076 μM, Csubstrate = 4 mM) was 0.393 min/E. It also gave a 1/Reaction rate (CB-f-P-R-H 0.08152 μM, Csubstrate = 0.5 mM) of 1.565 min/E, a 1/Reaction rate (CB-f-P-R-H 0.08152 μM, Csubstrate = 2 mM) of 0.4594 min/E and a 1/Reaction rate (CB-f-P-R-H 0.08152 μM, Csubstrate = 4 mM) of 0.4143 min/E. It also gave a 1/Reaction rate (CB-f-P-R-H 0.16304 μM, Csubstrate = 0.5 mM) of 1.711 min/E, a 1/Reaction rate (CB-f-P-R-H 0.16304 μM, Csubstrate = 2 mM) of 0.521 min/E and a 1/Reaction rate (CB-f-P-R-H 0.16304 μM, Csubstrate = 4 mM) of 0.4395 min/E. It also gave a 1/Reaction rate (CB-f-P-R-H 0.20380 μM, Csubstrate = 0.5 mM) of 1.638 min/E, a 1/Reaction rate (CB-f-P-R-H 0.20380 μM, Csubstrate = 2 mM) of 0.5061 min/E and a 1/Reaction rate (CB-f-P-R-H 0.20380 μM, Csubstrate = 4 mM) of 0.4298 min/E. It also gave a 1/Reaction rate (CB-f-P-R-H 0.32609 μM, Csubstrate = 0.5 mM) of 2.382 min/E, a 1/Reaction rate (CB-f-P-R-H 0.32609 μM, Csubstrate = 2 mM) of 0.6613 min/E and a 1/Reaction rate (CB-f-P-R-H 0.32609 μM, Csubstrate = 4 mM) of 0.5012 min/E. It also gave a 1/Reaction rate (CB-f-P-R-H 0.40761 μM, Csubstrate = 0.5 mM) of 2.645 min/E, a 1/Reaction rate (CB-f-P-R-H 0.40761 μM, Csubstrate = 2 mM) of 0.7008 min/E and a 1/Reaction rate (CB-f-P-R-H 0.40761 μM, Csubstrate = 4 mM) of 0.5334 min/E. It also gave a 1/Reaction rate (CB-f-P-R-H 0.65217 μM, Csubstrate = 0.5 mM) of 4.162 min/E, a 1/Reaction rate (CB-f-P-R-H 0.65217 μM, Csubstrate = 2 mM) of 1.029 min/E and a 1/Reaction rate (CB-f-P-R-H 0.65217 μM, Csubstrate = 4 mM) of 0.6737 min/E. The 1/Reaction rate (CB-f-P-R-H 0.81522 μM, Csubstrate = 0.5 mM) was 4.775 min/E, the 1/Reaction rate (CB-f-P-R-H 0.81522 μM, Csubstrate = 2 mM) was 1.169 min/E and the 1/Reaction rate (CB-f-P-R-H 0.81522 μM, Csubstrate = 4 mM) was 0.7274 min/E. For the same compound, the 1/Reaction rate (CB-f-P-R-H 1.30435 μM, Csubstrate = 0.5 mM) was 7.175 min/E, the 1/Reaction rate (CB-f-P-R-H 1.30435 μM, Csubstrate = 2 mM) was 1.793 min/E and the 1/Reaction rate (CB-f-P-R-H 1.30435 μM, Csubstrate = 4 mM) was 0.9974 min/E. For the same compound, the 1/Reaction rate (CB-f-P-R-H 1.63043 μM, Csubstrate = 0.5 mM) was 8.491 min/E, the 1/Reaction rate (CB-f-P-R-H 1.63043 μM, Csubstrate = 2 mM) was 2.164 min/E and the 1/Reaction rate (CB-f-P-R-H 1.63043 μM, Csubstrate = 4 mM) was 1.183 min/E. It also gave a 1/Reaction rate (CB-f-P-R-H 2.60870 μM, Csubstrate = 0.5 mM) of 13.19 min/E, a 1/Reaction rate (CB-f-P-R-H 2.60870 μM, Csubstrate = 2 mM) of 3.37 min/E and a 1/Reaction rate (CB-f-P-R-H 2.60870 μM, Csubstrate = 4 mM) of 1.775 min/E. The 1/Reaction rate (CB-f-P-R-H 3.26087 μM, Csubstrate = 0.5 mM) was 15.77 min/E, the 1/Reaction rate (CB-f-P-R-H 3.26087 μM, Csubstrate = 2 mM) was 4.026 min/E and the 1/Reaction rate (CB-f-P-R-H 3.26087 μM, Csubstrate = 4 mM) was 2.13 min/E. For the same compound, the 1/Reaction rate (CB-f-P-R-H 5.21739 μM, Csubstrate = 0.5 mM) was 24.76 min/E, the 1/Reaction rate (CB-f-P-R-H 5.21739 μM, Csubstrate = 2 mM) was 6.165 min/E and the 1/Reaction rate (CB-f-P-R-H 5.21739 μM, Csubstrate = 4 mM) was 3.251 min/E. The 1/Reaction rate (CB-f-P-R-H 6.52174 μM, Csubstrate = 0.5 mM) was 32.28 min/E, the 1/Reaction rate (CB-f-P-R-H 6.52174 μM, Csubstrate = 2 mM) was 7.856 min/E and the 1/Reaction rate (CB-f-P-R-H 6.52174 μM, Csubstrate = 4 mM) was 4.089 min/E. The 1/Reaction rate (CB-f-P-R-H 9.78261 μM, Csubstrate = 0.5 mM) was 43.9 min/E, the 1/Reaction rate (CB-f-P-R-H 9.78261 μM, Csubstrate = 2 mM) was 11.18 min/E and the 1/Reaction rate (CB-f-P-R-H 9.78261 μM, Csubstrate = 4 mM) was 5.843 min/E. The 1/Reaction rate (CB-f-P-R-H 13.04348 μM, Csubstrate = 0.5 mM) was 59.12 min/E, the 1/Reaction rate (CB-f-P-R-H 13.04348 μM, Csubstrate = 2 mM) was 14.43 min/E and the 1/Reaction rate (CB-f-P-R-H 13.04348 μM, Csubstrate = 4 mM) was 7.611 min/E. It also gave a 1/Reaction rate (CB-f-P-R-H 16.30435 μM, Csubstrate = 0.5 mM) of 74.55 min/E, a 1/Reaction rate (CB-f-P-R-H 16.30435 μM, Csubstrate = 2 mM) of 18.09 min/E and a 1/Reaction rate (CB-f-P-R-H 16.30435 μM, Csubstrate = 4 mM) of 9.302 min/E. For the same compound, the 1/Reaction rate (CB-f-P-R-H 26.08696 μM, Csubstrate = 0.5 mM) was 121.7 min/E, the 1/Reaction rate (CB-f-P-R-H 26.08696 μM, Csubstrate = 2 mM) was 28.41 min/E and the 1/Reaction rate (CB-f-P-R-H 26.08696 μM, Csubstrate = 4 mM) was 14.59 min/E. For the same compound, the “Intersect of regression curve 1/reaction rate vs ligand concentration” value (“Intersect … vs ligand concentration” below) (Csubstrate 0.5 mM) was 0.9175 min/E, the “Slope of regression curve 1/reaction rate vs ligand concentration” value (shortened to “Slope … vs ligand concentration”) (Csubstrate 0.5 mM) was 4.5718 min/E μM and the “Intersect … vs ligand concentration” value (Csubstrate 2 mM) was 0.04059 min/E. For the same compound, the “Slope … vs ligand concentration” value (Csubstrate 2 mM) was 1.0812 min/E μM, the “Intersect … vs ligand concentration” value (Csubstrate 4 mM) was 0.3497 min/E and the “Slope … vs ligand concentration” value (Csubstrate 4 mM) was 0.5500 min/E μM. It also gave a Ki (average of three Ki values, read-out: KiM average thrombin binding constant) of 131 nM, a Ki (intersection of regression curves Csubstrate 2 and 0.5 mM, read-out: Ki2&3 thrombin binding constant) of 147 nM and a Ki (intersection of regression curves Csubstrate 4 and 0.5 mM, read-out: Ki1&3 thrombin binding constant) of 141 nM. For the same compound, the Ki (intersection of regression curves Csubstrate 4 and 2 mM, read-out: Ki1&2 thrombin binding constant) was 106 nM and the “binding of the peptide aldehyde with thrombin (reversible or irreversible)” value (intersections of regression curves not on the x axis) was “reversible”.
